{"source": "patent US11021446B2", "about": "(NOVARTIS AG, priority 2013, dated 2021)", "data": [{"target": "T1, human Farnesoid X Receptor (FXR) ligand binding domain (GST-FXR LBD) (Homo sapiens, UniProt Q96RI1)", "T1 construct": "purchased Invitrogen", "T1 sequence (Q96RI1 193-472 isoform Q96RI1-2)": "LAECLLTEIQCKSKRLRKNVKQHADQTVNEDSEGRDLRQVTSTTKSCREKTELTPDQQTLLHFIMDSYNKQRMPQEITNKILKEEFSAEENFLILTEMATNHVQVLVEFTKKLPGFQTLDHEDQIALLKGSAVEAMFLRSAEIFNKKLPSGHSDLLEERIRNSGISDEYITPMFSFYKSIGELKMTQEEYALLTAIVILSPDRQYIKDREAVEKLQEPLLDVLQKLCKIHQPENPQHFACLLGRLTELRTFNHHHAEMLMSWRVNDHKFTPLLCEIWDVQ", "test": "Human GST-FXR LBD co-activator interaction assay (FXR HTRF assay)", "format": "biochemical", "conditions": "GST-FXR LBD interaction with biotin-labeled SRC-1 peptide, FRET, response relative to GW4064, read-out: FXR coactivator interaction assay (HTRF)", "excerpt": "Human GST-FXR LBD Co-Activator Interaction Assay\nThe FXR HTRF assay is a biochemical assay measuring the interaction between FXR and a coactivator protein (SRC1). The ligand-induced interaction with a coactivator protein is a critical step in transcriptional activation by FXR. Thus, this is an assay designed to measure FXR agonist activity of the test compounds.\nRecombinant human Farnesoid X Receptor (FXR) ligand binding domain (amino acids 193-472) fused to glutathione S-transferase (GST) purified protein (GST-FXR LBD) was purchased (Invitrogen). The ligand-dependent interaction between GST-FXR LBD and a peptide derived from Steroid Receptor Coactivator-1 (SRC-1) was monitored by Fluorescence Resonance Energy Transfer (FRET). […] Test compounds (in DMSO solution) and detection reagents (anti-GST-Cryptate labeled antibody and Streptavidin-XL665 conjugate; CisBio) were added in assay buffer containing 50 mM KF. Plates are incubated at room temperature in the dark for 2.5 hrs before reading on an Envision (PerkinElmer) at 665 nm and 590 nm. The HTRF assay results were calculated from the 665 nm/590 nm ratio (ratio=(A665 nm/A590 nm)×10^4) and expressed in Delta F %=(Ratiosample−Rationegative)/Rationegative×100.\nA negative control (without Streptavidin-XL665) was run with each assay and represented the background fluorescence. A reference FXR agonist, (E)-3-(2-chloro-4-((3-(2,6-dichlorophenyl)-5-isopropylisoxazol-4-yl)methoxy)styryl)benzoic acid (Compound GW4064), was included in each experiment as positive control. The efficacy of each test compound was compared to that of GW4064. At each concentration, the relative activity of the test compound was expressed as Response %=(Rsample−RDMSO)/(Rpositive−RDMSO), where Rsample is the HTRF response (expressed in Delta F %) for the test compound, Rpositive is the maximal response for GW4064 at saturating concentrations, and RDMSO is the response for DMSO control. The EC50 values were calculated using GraphPad Prism (GraphPad Software) using non-linear regression curve fit (log(agonist) vs. response-variable slope (four parameters)).", "units": {"EC50": "nM"}, "values": [{"smiles": "Cc1cccc(CN(Cc2ccc(C(=O)O)cc2F)C(=O)c2nn(C)c3c2COc2ccc(F)cc2-3)c1", "note": "[Compound 85, 3-fluoro-4-((8-fluoro-1-methyl-N-(3-methylbenzyl)-1,4-dihydrochromeno[4,3-c]pyrazole-3-carboxamido)methyl)benzoic acid]", "EC50": 35}, {"smiles": "Cn1nc(C(=O)N(CC(=O)Nc2cc(C(=O)O)ccc2F)Cc2ccccc2F)c2c1-c1cc(F)c(F)cc1OC2", "note": "[Compound 17, 3-(2-(7,8-difluoro-N-(2-fluorobenzyl)-1-methyl-1,4-dihydrochromeno[4,3-c]pyrazole-3-carboxamido)acetamido)-4-fluorobenzoic acid]", "EC50": 1}, {"smiles": "Cn1nc(C(=O)N(CCOc2ccc(C(=O)O)cc2)Cc2ccccc2F)c2c1-c1cc(Cl)ccc1OC2", "note": "[Compound 45, 4-(2-(8-chloro-N-(2-fluorobenzyl)-1-methyl-1,4-dihydrochromeno[4,3-c]pyrazole-3-carboxamido)ethoxy)benzoic acid]", "EC50": 15}, {"smiles": "Cn1nc(C(=O)N(CCOc2ccc(C(=O)O)cc2F)Cc2ccccc2)c2c1-c1cc(Cl)ccc1OC2", "note": "[Compound 55, 4-(2-(N-benzyl-8-chloro-1-methyl-1,4-dihydrochromeno[4,3-c]pyrazole-3-carboxamido)ethoxy)-3-fluorobenzoic Acid]", "EC50": 13}, {"smiles": "Cn1nc(C(=O)N(CCNc2cccc(C(=O)O)c2)Cc2ccccc2F)c2c1-c1cc(Cl)ccc1OC2", "note": "[Compound 63, 3-((2-(8-chloro-N-(2-fluorobenzyl)-1-methyl-1,4-dihydrochromeno[4,3-c]pyrazole-3-carboxamido)ethyl)amino)benzoic Acid]", "EC50": 6}, {"smiles": "Cn1nc(C(=O)N(CCNc2cc(C(=O)O)ccc2F)Cc2cccc(F)c2)c2c1-c1cc(Cl)ccc1OC2", "note": "[Compound 65, 3-((2-(8-chloro-N-(3-fluorobenzyl)-1-methyl-1,4-dihydrochromeno[4,3-c]pyrazole-3-carboxamido)ethyl)amino)-4-fluorobenzoic Acid]", "EC50": 7}, {"smiles": "Cc1cccc(CN(CC(=O)Nc2cc(C(=O)O)ccc2F)C(=O)c2nn(C)c3c2COc2ccc(Cl)cc2-3)c1", "note": "[Compound 3, 3-(2-(8-chloro-1-methyl-N-(3-methylbenzyl)-1,4-dihydrochromeno[4,3-c]pyrazole-3-carboxamido)acetamido)-4-fluorobenzoic acid]", "EC50": 0.51}, {"smiles": "Cn1nc(C(=O)N(CCOc2ccc(C(=O)O)cc2C(F)(F)F)Cc2ccccc2F)c2c1-c1cc(Cl)ccc1OC2", "note": "[Compound 51, 4-(2-(8-chloro-N-(2-fluorobenzyl)-1-methyl-1,4-dihydrochromeno[4,3-c]pyrazole-3-carboxamido)ethoxy)-3-(trifluoromethyl)benzoic acid]", "EC50": 9.8}, {"smiles": "Cn1nc(C(=O)N(Cc2ccc(C(=O)O)cc2)Cc2cncc(F)c2)c2c1-c1cc(Cl)ccc1OC2", "note": "[Compound 88, 4-((8-chloro-N-((5-fluoropyridin-3-yl)methyl)-1-methyl-1,4-dihydrochromeno[4,3-c]pyrazole-3-carboxamido)methyl)benzoic acid]", "EC50": 15}, {"smiles": "Cn1nc(C(=O)N(CC(=O)Nc2cc(C(=O)O)ccc2F)Cc2cccc(F)c2)c2c1-c1ccccc1OC2", "note": "[Compound 27, 4-fluoro-3-(2-(N-(3-fluorobenzyl)-1-methyl-1,4-dihydrochromeno[4,3-c]pyrazole-3-carboxamido)acetamido)benzoic acid]", "EC50": 1.4}, {"smiles": "Cn1nc(C(=O)N(CC(=O)Nc2cc(C(=O)O)ccc2F)Cc2cccc(F)c2)c2c1-c1cc(F)c(F)cc1OC2", "note": "[Compound 18, 3-(2-(7,8-difluoro-N-(3-fluorobenzyl)-1-methyl-1,4-dihydrochromeno[4,3-c]pyrazole-3-carboxamido)acetamido)-4-fluorobenzoic acid]", "EC50": 0.4}, {"smiles": "Cn1nc(C(=O)N(CCOc2c(F)cc(C(=O)O)cc2F)Cc2ccccc2)c2c1-c1cc(F)ccc1OC2", "note": "[Compound 54, 4-(2-(N-benzyl-8-fluoro-1-methyl-1,4-dihydrochromeno[4,3-c]pyrazole-3-carboxamido)ethoxy)-3,5-difluorobenzoic acid]", "EC50": 21}, {"smiles": "Cc1cccc(CN(CC(=O)Nc2cc(C(=O)O)ccc2F)C(=O)c2nn(C)c3c2COc2ccc(F)cc2-3)c1", "note": "[Compound 20, 4-fluoro-3-(2-(8-fluoro-1-methyl-N-(3-methylbenzyl)-1,4-dihydrochromeno[4,3-c]pyrazole-3-carboxamido)acetamido)benzoic acid]", "EC50": 0.5}, {"smiles": "Cn1nc(C(=O)N(CCNc2cc(C(=O)O)ccc2F)Cc2cccc(F)c2)c2c1-c1cc(F)c(F)cc1OC2", "note": "[Compound 73, 3-((2-(7,8-difluoro-N-(3-fluorobenzyl)-1-methyl-1,4-dihydrochromeno[4,3-c]pyrazole-3-carboxamido)ethyl)amino)-4-fluorobenzoic acid]", "EC50": 20}, {"smiles": "Cn1nc(C(=O)N(CCOc2ccc(C(=O)O)cc2F)Cc2ccccc2)c2c1-c1cc(F)ccc1OC2", "note": "[Compound 56, 4-(2-(N-benzyl-8-fluoro-1-methyl-1,4-dihydrochromeno[4,3-c]pyrazole-3-carboxamido)ethoxy)-3-fluorobenzoic acid]", "EC50": 40}, {"smiles": "Cn1nc(C(=O)N(Cc2ccc(C(=O)O)c(F)c2)Cc2ccccc2F)c2c1-c1cc(Cl)ccc1OC2", "note": "[Compound 97, 4-((8-chloro-N-(2-fluorobenzyl)-1-methyl-1,4-dihydrochromeno[4,3-c]pyrazole-3-carboxamido)methyl)-2-fluorobenzoic acid]", "EC50": 17}, {"smiles": "Cn1nc(C(=O)N(CCOc2c(F)cc(C(=O)O)cc2F)Cc2ccccc2)c2c1-c1cc(Cl)ccc1OC2", "note": "[Compound 52, 4-(2-(N-benzyl-8-chloro-1-methyl-1,4-dihydrochromeno[4,3-c]pyrazole-3-carboxamido)ethoxy)-3,5-difluorobenzoic acid]", "EC50": 2.6}, {"smiles": "Cn1nc(C(=O)N(CCNc2cc(C(=O)O)ccc2F)Cc2ccccc2)c2c1-c1cc(Cl)ccc1OC2", "note": "[Compound 72, 3-((2-(N-benzyl-8-chloro-1-methyl-1,4-dihydrochromeno[4,3-c]pyrazole-3-carboxamido)ethyl)amino)-4-fluorobenzoic acid]", "EC50": 2.6}, {"smiles": "Cn1nc(C(=O)N(CCOc2cccc(C(=O)O)c2)Cc2ccccc2F)c2c1-c1cc(Cl)ccc1OC2", "note": "[Compound 44, 3-(2-(8-chloro-N-(2-fluorobenzyl)-1-methyl-1,4-dihydrochromeno[4,3-c]pyrazole-3-carboxamido)ethoxy)benzoic acid]", "EC50": 11}, {"smiles": "CC(CNC(=O)CN(Cc1ccccc1F)C(=O)c1nn(C)c2c1COc1ccc(Cl)cc1-2)C(=O)O", "note": "(stereo not shown) [Compound 40, 3-(2-(8-chloro-N-(2-fluorobenzyl)-1-methyl-1,4-dihydrochromeno[4,3-c]pyrazole-3-carboxamido)acetamido)-2-methylpropanoic Acid]", "EC50": 8.6}, {"smiles": "Cn1nc(C(=O)N(Cc2ccc(C(=O)O)cc2)Cc2ccc3[nH]ccc3c2)c2c1-c1cc(Cl)ccc1OC2", "note": "[Compound 86, 4-((N-((1H-indol-5-yl)methyl)-8-chloro-1-methyl-1,4-dihydrochromeno[4,3-c]pyrazole-3-carboxamido)methyl)benzoic acid]", "EC50": 12}, {"smiles": "Cc1ccc(C(=O)O)cc1NC(=O)CN(Cc1ccccc1F)C(=O)c1nn(C)c2c1COc1ccc(Cl)cc1-2", "note": "[Compound 30]", "EC50": 0.6}, {"smiles": "Cn1nc(C(=O)N(CCOc2ccc(C(=O)O)cc2F)Cc2cccc(F)c2)c2c1-c1cc(F)c(F)cc1OC2", "note": "[Compound 59, 4-(2-(7,8-difluoro-N-(3-fluorobenzyl)-1-methyl-1,4-dihydrochromeno[4,3-c]pyrazole-3-carboxamido)ethoxy)-3-fluorobenzoic acid]", "EC50": 28}, {"smiles": "Cn1nc(C(=O)N(Cc2ccc(C(=O)O)cc2)Cc2ccccc2F)c2c1-c1cc(Cl)ccc1OC2", "note": "[Compound 92, 4-((8-chloro-N-(2-fluorobenzyl)-1-methyl-1,4-dihydrochromeno[4,3-c]pyrazole-3-carboxamido)methyl)benzoic acid]", "EC50": 14}, {"smiles": "Cn1nc(C(=O)N(CCOc2ccc(C(=O)O)cc2F)Cc2ccccc2F)c2c1-c1cc(F)c(F)cc1OC2", "note": "[Compound 62, 4-(2-(7,8-difluoro-N-(2-fluorobenzyl)-1-methyl-1,4-dihydrochromeno[4,3-c]pyrazole-3-carboxamido)ethoxy)-3-fluorobenzoic acid]", "EC50": 74}]}]}
